What was measured:
[1] = target: α-glucosidase; assay: In vitro α-glucosidase inhibitory assay (PNP-G substrate); format: biochemical; details: for IC50: three independent experiments, acarbose positive control, read-out: IC50 Values (µM ± SD) α-Glucosidase; for SI (selectivity index): SI = IC50(α-glucosidase)/IC50(α-amylase)
Protocol: (§1) The IC50 values (μM) represented in Table 3 were calculated from the log dose-inhibition curves and are expressed as means ± standard deviations (SD) of three independent experiments. […] Inhibitors of α-glucosidase with mild inhibitory activity against α-amylase, on the other hand, constitute one of the major therapeutic strategies for the treatment of T2DM.
All the tests and analyses were performed in triplicates following a literature method described in our previous study. The stock solutions of the test compounds (200 µM) were prepared in DMSO, followed by dilution with a 100 mM phosphate buffer to obtain the concentrations of 100 µM. […] The enzyme solution (0.48 u/mL α-glucosidase, 17 µL); phosphate buffer (100 mM, pH 6.8; 50 µL); and test sample in DMSO (17 µL) were incubated at 37 °C for 10 min. After pre-incubation, 17 µL of 2 mM p-nitrophenyl-α-d-glucopyranoside (PNP-G) was added to each of the wells containing reaction mixtures to initiate the reaction. The absorbance was measured at 405 nm using a Bio-Rad microplate reader. The IC50 concentration was calculated using the AAT Bioquest online calculator.

[2] = target: α-amylase; assay: In vitro α-amylase inhibitory assay (CNP-G3 substrate); format: biochemical; details: three independent experiments; acarbose positive control; read-out: IC50 Values (µM ± SD) α-Amylase
Protocol: as §1
The α-amylase inhibitory assay was performed in 96-well microplates using a final volume of 200 μL, following a procedure described in the literature study. The enzyme assay was performed with a phosphate buffer ([…]) containing 0.02% NaN3 and adjusted to pH 6.0 with 2.0 M phosphoric acid. […] The enzyme solution (2.0 u/mL α-amylase, 5 µL); phosphate buffer ([…], pH 6.0; 175 µL); and 10 µL test sample were incubated at 37 °C for 10 min. After pre-incubation, 10 µL of 10 mM of 2-chloro-4-nitrophenyl-α-D-maltotrioside (CNP-G3) was added to each of the wells containing reaction mixtures to initiate the reaction. The absorbance was measured at 405 nm using a Bio-Rad microplate reader. The IC50 values were calculated using the AAT Bioquest online calculator.

SMILES: Oc1ccc(Br)cc1C1=Nc2ccccc2SC(c2ccccc2)C1 (centres unmarked) [Compound 2a, 4-Bromo-2-((E)-2,3-dihydro-2-phenylbenzo[b][1,5]thiazepine-4-yl)phenol]
- IC50 [1]: 6.7 ± 0.15 µM
- IC50 [2]: 20.87 ± 0.08 µM
- melting point: 128 to 137 °C

SMILES: Oc1ccc(Br)cc1C1=Nc2ccccc2SC(c2ccc(F)cc2)C1 (centres unmarked) [Compound 2b, 4-Bromo-2-((E)-2,3-dihydro-2-(4-fluorophenyl)benzo[b][1,5]thiazepine-4-yl)phenol]
- SI (selectivity index) [1]: 1.09
- IC50 [1]: 17.2 ± 0.07 µM
- IC50 [2]: 15.85 ± 0.05 µM
- melting point: 128 to 134 °C

SMILES: Oc1ccc(Br)cc1C1=Nc2ccccc2SC(c2ccc(Cl)cc2)C1 (centres unmarked) [Compound 2c, 4-Bromo-2-((E)-2,3-dihydro-2-(4-chlorophenyl)benzo[b][1,5]thiazepine-4-yl)phenol]
- SI (selectivity index) [1]: 0.12
- IC50 [1]: 2.69 ± 0.27 µM
- IC50 [2]: 22.86 ± 0.04 µM
- melting point: 167 to 172 °C

SMILES: COc1cccc(C2CC(c3cc(Br)ccc3O)=Nc3ccccc3S2)c1 (centres unmarked) [Compound 2d, 4-Bromo-2-((E)-2,3-dihydro-2-(3-methoxyphenyl)benzo[b][1,5]thiazepine-4-yl)phenol]
- SI (selectivity index) [1]: 0.29
- IC50 [1]: 13.2 ± 1 µM
- IC50 [2]: 46.16 ± 0.31 µM
- melting point: 161 to 167 °C

SMILES: COc1ccc(C2CC(c3cc(Br)ccc3O)=Nc3ccccc3S2)cc1 (centres unmarked) [Compound 2e, 4-Bromo-2-((E)-2,3-dihydro-2-(4-methoxyphenyl)benzo[b][1,5]thiazepine-4-yl)phenol]
- SI (selectivity index) [1]: 0.29
- IC50 [1]: 15.87 ± 0.13 µM
- IC50 [2]: 55.14 ± 0.19 µM
- melting point: 131 to 136 °C

SMILES: CC(C)c1ccc(C2CC(c3cc(Br)ccc3O)=Nc3ccccc3S2)cc1 (centres unmarked) [Compound 2f, 4-Bromo-2-((E)-2,3-dihydro-2-(4-isopropylphenyl)benzo[b][1,5]thiazepine-4-yl)phenol]
- SI (selectivity index) [1]: 0.67
- IC50 [1]: 6.54 ± 0.11 µM
- IC50 [2]: 9.71 ± 0.5 µM
- melting point: 126 to 131 °C

From PMC9607343, “Synthesis, Conformational Analysis and Evaluation of the 2-aryl-4-(4-bromo-2-hydroxyphenyl)benzo[1,5]thiazepines as Potential α-Glucosidase and/or α-Amylase Inhibitors” (Molecules, 2022)
